From ChEMBL document CHEMBL3856253, “6'-O-Caffeoyldihydrosyringin isolated from Aster glehni suppresses lipopolysaccharide-induced iNOS, COX-2, TNF-α, IL-1β and IL-6 expression via NF-κB and AP-1 inactivation in RAW 264.7 macrophages” (Bioorg Med Chem Lett, 2016)
The source made the active and inactive calls. The calls are words filed in the database; no cut-off is given here.

Key:
[1] = (§1) Inhibition of NF-kappaB/AP-1 in mouse RAW264.7 cells assessed as reduction in LPS-induced nitric oxide production incubated for 1 hr followed by stimulation with LPS for 24 hrs by Griess assay; format: cell-based
[2] = Cytotoxicity against LPS-induced mouse RAW264.7 cells assessed as decrease in cell viability after 24 hrs by MTT assay; format: toxicity; settings: LPS-induced RAW264.7 cells
[3] = (§2) Inhibition of NF-kappaB/AP-1 in mouse RAW264.7 cells assessed as reduction in LPS-induced PGE2 production incubated for 1 hr followed by stimulation with LPS for 24 hrs by enzyme immuno assay; format: cell-based
RAW264.7 [4] = test: Inhibition of NF-kappaB/AP-1 in mouse RAW264.7 cells assessed as reduction in LPS-induced IL-1beta mRNA level incubated for 4 hrs by SYBR green dye based qRT-PCR analysis; format: cell-based
RAW264.7 [5] = test: Inhibition of NF-kappaB/AP-1 in mouse RAW264.7 cells assessed as reduction in LPS-induced TNF-alpha production incubated for 1 hr followed by stimulation with LPS for 24 hrs by enzyme immuno assay; format: cell-based
RAW264.7 [6] = test: as §1; format: cell-based
RAW264.7 [7] = test: Inhibition of NF-kappaB/AP-1 in mouse RAW264.7 cells assessed as reduction in LPS-induced TNF-alpha mRNA level incubated for 4 hrs by SYBR green dye based qRT-PCR analysis; format: cell-based
[8] = target: Transcription factor p65 (Mus musculus) (UniProt Q04207); test: Inhibition of LPS-induced NF-kappaB p65 subunit nuclear translocation in mouse RAW264.7 cells at 50 uM incubated for 1 hr followed by stimulation with LPS for 15 to 45 mins; format: cell-based
Chain of Transcription factor p65 (Mus musculus) (Q04207 whole entry): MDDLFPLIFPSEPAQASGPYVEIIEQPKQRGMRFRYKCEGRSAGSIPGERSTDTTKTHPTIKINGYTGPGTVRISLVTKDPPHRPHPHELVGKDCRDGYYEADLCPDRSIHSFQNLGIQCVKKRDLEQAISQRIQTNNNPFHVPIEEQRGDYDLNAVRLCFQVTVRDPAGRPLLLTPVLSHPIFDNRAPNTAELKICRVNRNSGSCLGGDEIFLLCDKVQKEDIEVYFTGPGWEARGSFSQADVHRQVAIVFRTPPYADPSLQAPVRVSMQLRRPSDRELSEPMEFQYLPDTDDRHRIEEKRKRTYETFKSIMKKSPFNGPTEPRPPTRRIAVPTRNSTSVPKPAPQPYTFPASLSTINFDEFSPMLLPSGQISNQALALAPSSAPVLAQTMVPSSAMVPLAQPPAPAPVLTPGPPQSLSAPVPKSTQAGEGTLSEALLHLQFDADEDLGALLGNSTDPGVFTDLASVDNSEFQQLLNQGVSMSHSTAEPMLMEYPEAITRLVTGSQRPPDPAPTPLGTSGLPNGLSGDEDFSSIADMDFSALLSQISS

RAW264.7 [9] = test: Inhibition of NF-kappaB/AP-1 in mouse RAW264.7 cells assessed as reduction in LPS-induced COX-2 protein expression incubated for 1 hr followed by stimulation with LPS for 24 hrs by Western blot analysis; format: cell-based
RAW264.7 [10] = test: Inhibition of NF-kappaB/AP-1 in mouse RAW264.7 cells assessed as reduction in LPS-induced COX-2 mRNA level incubated for 4 hrs by SYBR green dye based qRT-PCR analysis; format: cell-based
RAW264.7 [11] = test: Inhibition of NF-kappaB/AP-1 in mouse RAW264.7 cells assessed as reduction in LPS-induced iNOS protein expression incubated for 1 hr followed by stimulation with LPS for 24 hrs by Western blot analysis; format: cell-based
[12] = target: Proto-oncogene c-Fos (Mus musculus) (UniProt P01101); test: Inhibition of LPS-induced AP-1 c-Fos component phosphorylation in nucleus of mouse RAW264.7 cells at 50 uM incubated for 1 hr followed by stimulation with LPS for 15 to 45 mins by Western blot analysis
Chain of Proto-oncogene c-Fos (Mus musculus) (P01101 whole entry, looked up): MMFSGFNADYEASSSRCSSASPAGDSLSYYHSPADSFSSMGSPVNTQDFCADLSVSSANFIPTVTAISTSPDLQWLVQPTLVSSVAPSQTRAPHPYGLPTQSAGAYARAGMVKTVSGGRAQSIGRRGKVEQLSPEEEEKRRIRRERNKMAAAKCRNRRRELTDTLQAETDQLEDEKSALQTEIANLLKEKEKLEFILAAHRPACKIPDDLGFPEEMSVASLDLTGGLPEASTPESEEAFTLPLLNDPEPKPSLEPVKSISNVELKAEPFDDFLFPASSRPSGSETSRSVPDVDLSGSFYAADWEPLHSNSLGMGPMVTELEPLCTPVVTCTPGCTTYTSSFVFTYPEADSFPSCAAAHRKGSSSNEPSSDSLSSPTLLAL

RAW264.7 [13] = test: Inhibition of NF-kappaB/AP-1 in mouse RAW264.7 cells assessed as reduction in LPS-induced iNOS mRNA level incubated for 4 hrs by SYBR green dye based qRT-PCR analysis; format: cell-based
RAW264.7 [14] = test: Inhibition of NF-kappaB/AP-1 in mouse RAW264.7 cells assessed as reduction in LPS-induced IL-6 production incubated for 1 hr followed by stimulation with LPS for 24 hrs by enzyme immuno assay; format: cell-based
[15] = target: Transcription factor Jun (Homo sapiens) (UniProt P05412); test: Inhibition of LPS-induced AP-1 (unknown origin) activity expressed in mouse RAW264.7 cells incubated for 1 hr followed by stimulation with LPS for 18 hrs by luciferase reporter gene assay; format: cell-based
Chain of Transcription factor Jun (Homo sapiens) (P05412 whole entry): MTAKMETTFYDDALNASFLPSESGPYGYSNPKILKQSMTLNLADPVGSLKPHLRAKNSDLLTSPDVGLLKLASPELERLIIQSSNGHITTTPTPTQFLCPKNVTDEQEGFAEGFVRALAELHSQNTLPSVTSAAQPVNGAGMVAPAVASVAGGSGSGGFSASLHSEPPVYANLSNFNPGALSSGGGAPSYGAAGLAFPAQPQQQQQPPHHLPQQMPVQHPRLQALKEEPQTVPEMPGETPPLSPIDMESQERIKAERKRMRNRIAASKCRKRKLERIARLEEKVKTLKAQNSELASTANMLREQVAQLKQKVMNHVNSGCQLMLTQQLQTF

[16] = target: Transcription factor p65 (Mus musculus) (UniProt Q04207); test: Inhibition of LPS-induced NF-kappaB p65 subunit phosphorylation in mouse RAW264.7 cells at 50 uM incubated for 1 hr followed by stimulation with LPS for 15 to 45 mins; format: cell-based
RAW264.7 [17] = test: as §2; format: cell-based
Mus musculus = species: Mus musculus; test: Cytotoxicity against LPS-induced mouse RAW264.7 cells assessed as decrease in cell viability up to 50 uM after 24 hrs by MTT assay; format: toxicity, cell-based; settings: raw264.7, 24 h
[18] = target: RAC-alpha serine/threonine-protein kinase (Mus musculus) (UniProt P31750); test: Inhibition of LPS-induced AKT phosphorylation in mouse RAW264.7 cells at 50 uM incubated for 1 hr followed by stimulation with LPS by Western blot analysis; format: cell-based
Chain of RAC-alpha serine/threonine-protein kinase (Mus musculus) (P31750 whole entry): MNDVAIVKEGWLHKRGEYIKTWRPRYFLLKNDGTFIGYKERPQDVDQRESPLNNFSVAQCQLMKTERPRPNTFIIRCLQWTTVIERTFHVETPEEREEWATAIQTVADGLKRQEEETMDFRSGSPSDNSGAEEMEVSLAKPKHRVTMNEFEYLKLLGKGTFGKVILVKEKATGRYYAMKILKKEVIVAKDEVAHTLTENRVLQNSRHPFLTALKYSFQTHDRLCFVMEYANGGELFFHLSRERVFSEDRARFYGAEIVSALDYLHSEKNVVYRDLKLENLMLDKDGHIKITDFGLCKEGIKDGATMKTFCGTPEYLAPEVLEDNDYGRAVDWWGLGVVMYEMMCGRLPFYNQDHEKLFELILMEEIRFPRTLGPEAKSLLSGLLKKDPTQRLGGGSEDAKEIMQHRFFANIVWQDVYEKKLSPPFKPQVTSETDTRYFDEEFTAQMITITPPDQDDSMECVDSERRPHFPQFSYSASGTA

RAW264.7 [19] = test: Inhibition of NF-kappaB/AP-1 in mouse RAW264.7 cells assessed as reduction in LPS-induced IL-1beta production incubated for 1 hr followed by stimulation with LPS for 24 hrs by enzyme immuno assay; format: cell-based
RAW264.7 [20] = test: Inhibition of NF-kappaB/AP-1 in mouse RAW264.7 cells assessed as reduction in LPS-induced IL-6 mRNA level incubated for 4 hrs by SYBR green dye based qRT-PCR analysis; format: cell-based
RAW264.7 [21] = test: Inhibition of LPS-induced NF-kappaB (unknown origin) activity expressed in mouse RAW264.7 cells incubated for 1 hr followed by stimulation with LPS for 18 hrs by luciferase reporter gene assay; format: cell-based

## CC(=O)/C=C/C1=C(C)[C@@H](O)[C@@H](O[C@@H]2O[C@H](COC(=O)/C=C/c3ccc(O)c(O)c3)[C@@H](O)[C@H](O)[C@H]2O)CC1(C)C
[1]
  IC50: > 50 µM
[2]
  IC80 at 24 h: > 100 µM
[3]
  IC50: > 50 µM

## C[C@H](/C=C/[C@@]1(O)[C@H](C)CC(=O)CC1(C)C)O[C@@H]1O[C@H](COC(=O)/C=C/c2ccc(O)c(O)c2)[C@@H](O)[C@H](O)[C@H]1O
[1]
  IC50: > 50 µM
[2]
  IC80 at 24 h: > 100 µM
[3]
  IC50: > 50 µM

## CC1=CC(=O)CC(C)(C)[C@@]1(O)/C=C/[C@@H](C)O[C@@H]1O[C@H](COC(=O)/C=C/c2ccc(O)c(O)c2)[C@@H](O)[C@H](O)[C@H]1O
[1]
  IC50: > 50 µM
[2]
  IC80 at 24 h: 67.8 µM
[3]
  IC50: > 50 µM

## C/C(=C\CO)CO[C@@H]1O[C@H](COC(=O)/C=C/c2ccc(O)c(O)c2)[C@@H](O)[C@H](O)[C@H]1O
[1]
  IC50: 31.5 µM
[2]
  IC80 at 24 h: > 100 µM
[3]
  IC50: > 50 µM

## COc1cc(CCCO)cc(OC)c1O[C@@H]1O[C@H](COC(=O)/C=C/c2ccc(O)c(O)c2)[C@@H](O)[C@H](O)[C@H]1O
RAW264.7 [4]
  inhibition: Active
RAW264.7 [5]
  inhibition: Active
[1]
  IC50: 43.6 µM
RAW264.7 [6]
  inhibition: Dose-dependent effect
RAW264.7 [7]
  inhibition: Active
[8]
  inhibition: Active
RAW264.7 [9]
  inhibition: Dose-dependent effect
RAW264.7 [10]
  inhibition: Dose-dependent effect
[2]
  IC80 at 24 h: 67.6 µM
RAW264.7 [11]
  inhibition: Dose-dependent effect
[12]
  inhibition: Active
RAW264.7 [13]
  inhibition: Dose-dependent effect
RAW264.7 [14]
  inhibition: Active
[15]
  inhibition: Dose-dependent effect
[16]
  inhibition: Active
[3]
  IC50: 48.3 µM
RAW264.7 [17]
  inhibition: Dose-dependent effect
Mus musculus
  Activity: Non-Toxic
[18]
  inhibition: Active
RAW264.7 [19]
  inhibition: Active
RAW264.7 [20]
  inhibition: Active
RAW264.7 [21]
  inhibition: Dose-dependent effect
